Consider 1 compound from US6506580B1, “Splice variants for human 5-HT4 serotonin receptor and their applications, in particular for screening” (Institut National de la Sante et de la Recherche Medicale …, priority 1997, dated 2003).

Assay [1] deals with T1, receptor 5-HT4(c) (Homo sapiens, UniProt Q13639). Briefly: [3H]GR113808 saturation binding, membranes of stably transfected CHO cells. Also on record: The entire coding region of the cDNAs of 5-HT4(a), 5-HT4(b), 5-HT4(c) and 5-T4(d) was subcloned; expressed in transfected cells; pRC/CMV vector; cDNA amplified from human brain and ileum RNA. As to conditions: 30 minutes at 25° C., read-out: Kd, saturation analysis. Here is the method: (§1) The entire coding region of the 5-HT4(c) and 5-HT4(d) cDNAs was subcloned into a mammalian expression vector pRC/CMV (Invitrogen, Carlsbad, Calif.). The CHO cells are stably transfected by electroporation (250 V, 960 μF) with the plasmid PRc/CMV, containing the clone h5-HT4(c) or h5-HT4(d), cleaved with the restriction enzyme Kpn1 (10 μg of plasmid for 10^7 cells). The cells are cultured in HAM-F12 medium supplemented with 10% of heat-inactivated foetal calf serum. […] Twelve days later, the clones are individualized and cultured in 12-well plates. Clone selection is carried out by studying the stimulation of the cAMP formed in the presence of 1 μM serotonin. […]
T1 sequence (Q13639 1-380 isoform Q13639-4): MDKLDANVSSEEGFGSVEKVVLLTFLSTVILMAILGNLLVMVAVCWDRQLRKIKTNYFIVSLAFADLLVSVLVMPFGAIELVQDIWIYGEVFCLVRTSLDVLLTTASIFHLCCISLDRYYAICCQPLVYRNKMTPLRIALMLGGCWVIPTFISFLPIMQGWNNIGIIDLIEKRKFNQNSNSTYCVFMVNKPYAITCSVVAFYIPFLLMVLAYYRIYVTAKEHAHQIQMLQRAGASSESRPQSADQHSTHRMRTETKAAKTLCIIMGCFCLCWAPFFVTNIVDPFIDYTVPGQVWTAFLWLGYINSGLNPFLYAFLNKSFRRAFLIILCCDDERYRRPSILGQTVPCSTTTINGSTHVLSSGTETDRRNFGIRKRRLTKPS
(§2) Each flask of cells intended for the radioligand binding assays was washed twice with a phosphate buffer (PBS). […] The protein concentrations were determined by the method of Lowry et al., 1951, using bovine serum albumin as standard.
(§3) The radioligand binding studies were carried out in 500 μl of buffer (50 mM HEPES, pH 7.4) [lacuna] […] The filters were then washed with an ice-cold buffer (50 mM Tris-HCl, pH 7.4) and placed in 4 ml of “ready safe” scintillation cocktail (Beckman, Fullerton, Calif.) overnight. The radioactivity was measured using a Beckman LS 6500 C liquid scintillation counter. […]

Assay [2] concerns the target T2, receptor 5-HT4(d) (Homo sapiens, UniProt Q13639). The assay is described as above. The note with it: 30 minutes at 25° C., read-out: Kd, saturation analysis. Also on record: The entire coding region of the cDNAs of 5-HT4(a), 5-HT4(b), 5-HT4(c) and 5-T4(d) was subcloned; expressed in transfected cells; pRC/CMV vector; cDNA amplified from human brain and ileum RNA. The procedure: as §1, §2, §3

Assay [3] deals with T1, receptor 5-HT4(c). As to the kind of experiment: [3H]GR113808 radioligand binding, membranes of transiently transfected COS-7 cells. The note with it: 5-HT4(c), COS-7 membranes, 30 minutes at 25° C.; read-out: Kd, saturation analysis. Also on record: The entire coding region of the cDNAs of 5-HT4(a), 5-HT4(b), 5-HT4(c) and 5-T4(d) was subcloned; expressed in transfected cells; host or cells: COS-7 cells, transient, pRC/CMV vector; cDNA amplified from human brain and ileum RNA. The procedure:
(§4) The entire coding region of the cDNAs of 5-HT4(a), 5-HT4(b), 5-HT4(c) and 5-T4(d) was subcloned into a mammalian expression vector pRC/CMV (Invitrogen, Carlsbad, Calif.). The transfections were carried out using polyethyleneimine (PEI) as described in Boussif et al. (1995). The cells were transfected using a mixture of DNA and of PEI in a ratio of 20 μmol of PEI/mg of DNA in 0.9% NaCl. For the radioligand binding assays, the COS-7 cells were seeded into culture flasks of 1.5×10^4 mm^2 one day before the transfection, at a density of 1×10^7 cells/flask, incubated for six hours with plasmid DNA (150 μg/flask) and collected 48 hours after transfection. For the measurement of cAMP formation, the COS-7 cells were seeded onto twelve-well plates one day before transfection, at a density of 5×10^5 cells/well, incubated for six hours with plasmid DNA (4 to 8 μg/well according to the experiments) and assayed 24 hours after the transfection. The cells transfected with the receptor 5-HT4 cDNA constructs were compared with the “blank”-transfected cells, which were exposed to the unmodified pRC/CMV plasmid.
(§5) Each flask of cells intended for the radioligand binding assays was washed twice with a phosphate buffer (PBS). The cells were then scraped, collected and centrifuged at 300 g for five minutes. The pellet was resuspended in 2.5 ml of ice-cold HEPES buffer (50 mM, pH 7.4) and homogenized with an Ultraturax tissue grinder. The lysate was then centrifuged at 40,000 g for 20 minutes at 4° C. The resulting pellet was resuspended in 15 volumes of HEPES buffer (50 mM, pH 7.4). The membrane preparations were maintained in ice and used within two hours for radioligand binding assays. The protein concentrations were determined by the method of Lowry et al., 1951, using bovine serum albumin as standard.
(§6) The saturation studies were performed using [^3H] GR113808 at 9 different concentrations ranging from 0.01 to 3.5 nM. The tubes were incubated at 25° C. for 30 minutes. The reaction-was stopped by rapid filtration, under vacuum, through Whatman GF/B filter paper using the Brandel 48R cell harvester. The filters were presoaked in a solution of PEI (0.1%) to reduce the binding to the filters. The filters were then washed with an ice-cold buffer (50 mM Tris-HCl, pH 7.4) and placed in 4 ml of “ready safe” scintillation cocktail (Beckman, Fullerton, Calif.) overnight. The radioactivity was measured using a Beckman LS 6500 C liquid scintillation counter. The binding data were analysed by computer-assisted nonlinear regression analysis (Graph Pad Prism Program, Graph Pad Software, Inc., San Diego, Calif.).
(§7) The experiments correspond to the competition of various compounds for [^3H]GR113808 binding to membranes of transiently transfected COS-7 cells. […] The estimations of affinity are given as Ki values in nM, and are determined from IC50 values obtained by computer-assisted nonlinear curve analysis (GraphPad, Prism Software). The Ki values are representative of at least two determinations.

Assay [4] deals with T2, receptor 5-HT4(d). Described as above. The arrangement: The entire coding region of the cDNAs of 5-HT4(a), 5-HT4(b), 5-HT4(c) and 5-T4(d) was subcloned; expressed in transfected cells; host or cells: COS-7 cells, transient, pRC/CMV vector; cDNA amplified from human brain and ileum RNA. The note with it: 5-HT4(d), COS-7 membranes, 30 minutes at 25° C.; read-out: Kd, saturation analysis. The procedure: as §4, §5, §6, §7

The target in assay [5] is T3, receptor 5-HT4(a) (Homo sapiens, UniProt Q13639).
T3 construct: The entire coding region of the cDNAs of 5-HT4(a), 5-HT4(b), 5-HT4(c) and 5-T4(d) was subcloned; expressed in transfected cells; host or cells: COS-7 cells, transient, pRC/CMV vector
T3 sequence (Q13639 1-387 isoform Q13639-2): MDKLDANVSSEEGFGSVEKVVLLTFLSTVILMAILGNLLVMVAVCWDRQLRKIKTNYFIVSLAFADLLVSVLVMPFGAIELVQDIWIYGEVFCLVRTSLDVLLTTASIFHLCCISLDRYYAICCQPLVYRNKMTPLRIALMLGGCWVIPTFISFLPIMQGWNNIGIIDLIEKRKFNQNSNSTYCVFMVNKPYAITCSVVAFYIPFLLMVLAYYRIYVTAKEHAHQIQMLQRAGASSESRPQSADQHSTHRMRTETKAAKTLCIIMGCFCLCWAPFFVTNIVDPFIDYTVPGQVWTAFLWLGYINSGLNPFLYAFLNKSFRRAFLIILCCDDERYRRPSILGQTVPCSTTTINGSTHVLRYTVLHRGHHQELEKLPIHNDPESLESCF
The assay is described as above. The note with it: 5-HT4(a), COS-7 membranes, 30 minutes at 25° C.; read-out: Kd, saturation analysis. Here is the method:
as §4, §5, §6, §7

For assay [6], the target named is T4, receptor 5-HT4(b) (Homo sapiens, UniProt Q13639).
T4 construct: The entire coding region of the cDNAs of 5-HT4(a), 5-HT4(b), 5-HT4(c) and 5-T4(d) was subcloned; expressed in transfected cells; host or cells: COS-7 cells, transient, pRC/CMV vector; cDNA amplified from human brain and ileum RNA
T4 sequence (Q13639 whole entry): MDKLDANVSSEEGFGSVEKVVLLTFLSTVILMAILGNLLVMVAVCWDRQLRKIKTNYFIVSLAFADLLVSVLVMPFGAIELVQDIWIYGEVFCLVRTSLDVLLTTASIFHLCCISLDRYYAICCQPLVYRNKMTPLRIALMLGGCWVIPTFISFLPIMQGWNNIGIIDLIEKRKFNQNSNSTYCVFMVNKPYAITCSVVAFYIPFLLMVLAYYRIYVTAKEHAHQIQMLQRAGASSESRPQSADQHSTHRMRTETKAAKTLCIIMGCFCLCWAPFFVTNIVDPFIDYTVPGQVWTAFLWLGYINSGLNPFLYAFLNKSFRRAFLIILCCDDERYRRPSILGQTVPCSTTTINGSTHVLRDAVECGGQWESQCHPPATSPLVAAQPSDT
The assay is described as above. As to conditions: 5-HT4(b), COS-7 membranes, 30 minutes at 25° C.; read-out: Kd, saturation analysis. The procedure:
as §4, §5, §6, §7

Each structure is given as a SMILES string.

T2 sequence (Q13639 1-360 isoform Q13639-3): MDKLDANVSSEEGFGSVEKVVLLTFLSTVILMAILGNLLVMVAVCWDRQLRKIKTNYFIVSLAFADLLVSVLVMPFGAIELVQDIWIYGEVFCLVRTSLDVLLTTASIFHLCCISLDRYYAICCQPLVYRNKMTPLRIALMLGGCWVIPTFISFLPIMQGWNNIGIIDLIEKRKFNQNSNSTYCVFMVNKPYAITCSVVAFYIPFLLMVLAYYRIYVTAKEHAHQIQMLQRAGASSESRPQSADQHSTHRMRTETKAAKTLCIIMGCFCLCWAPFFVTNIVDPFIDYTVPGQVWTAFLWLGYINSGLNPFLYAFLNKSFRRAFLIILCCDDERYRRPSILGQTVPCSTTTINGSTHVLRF

With `Cn1cc(C(=O)OCC2CCN(CCNS(C)(=O)=O)CC2)c2ccccc21` [[^3H]GR113808], the Kd was determined as 0.42 ± 0.04 nM in assay [1]; 0.23 ± 0.03 nM in assay [2]; 0.3 ± 0.08 nM in assay [3]; 0.14 ± 0.05 nM in assay [4]; 0.23 ± 0.06 nM in assay [5]; 0.62 ± 0.05 nM in assay [6].
